{"source": "ChEMBL document CHEMBL1150934", "about": "“Cyclic polyketide peroxides and acyclic diol analogues from the sponge Plakortis lita” (J Nat Prod, 1998)", "test_system": "PO3", "test": "Antitumor activity in mouse PO3 cells xenografted mouse at 304.5 mg/kg after 31 days", "assay_type": "functional, organism-based", "parameters": "dose 304.5 mg/kg", "note": "Activity calls are given as the source filed them. No cut-off for these calls is given here.", "data": [{"smiles": "CC/C=C/[C@]1(CC)C[C@@H](CC)[C@H](CC(=O)OCC)OO1", "values": [{"measurement": "Activity", "value": "inactive"}]}]}
